Values quoted from earlier work in patent US8216611B2, “Combined-step process for pharmaceutical compositions” (Mylan Pharmaceuticals ULC, priority 2005, dated 2012).

Key:
[1] = test system: healthy volunteers; set-up: tolerability at single dose: dose or concentration left out as unconfirmed
[2] = test system: epileptic patients; settings: doses up to 4000 mg/day, preliminary data

For `CC[C@@H](C(N)=O)N1CCCC1=O` [levetiracetam, (−)-(S)-α-ethyl-2-oxo-1-pyrrolidine acetamide], the solubility in water is given as 104.0 g/100 ml, the “tolerability at repeated doses” value ([1]; repeated doses (1500 mg/day for 14 days)) is given as “well tolerated” and the “tolerability at single dose” value ([1]; single dose) is given as “well tolerated”. The “tolerability in epileptic patients” value [2] was “good tolerability”.
